Data set [1] concerns the target T1, Protein disulfide-isomerase (Homo sapiens, UniProt P07237). Description: Inhibition of recombinant His-tagged full length human PDI reductase activity assessed as inhibition of PDI/DTT-mediated cleavage of disulfide bond in insulin at 100 uM incubated for 40 mins by spectrophotometric analysis.
Target sequence in this assay (P07237 18-508 limits assumed): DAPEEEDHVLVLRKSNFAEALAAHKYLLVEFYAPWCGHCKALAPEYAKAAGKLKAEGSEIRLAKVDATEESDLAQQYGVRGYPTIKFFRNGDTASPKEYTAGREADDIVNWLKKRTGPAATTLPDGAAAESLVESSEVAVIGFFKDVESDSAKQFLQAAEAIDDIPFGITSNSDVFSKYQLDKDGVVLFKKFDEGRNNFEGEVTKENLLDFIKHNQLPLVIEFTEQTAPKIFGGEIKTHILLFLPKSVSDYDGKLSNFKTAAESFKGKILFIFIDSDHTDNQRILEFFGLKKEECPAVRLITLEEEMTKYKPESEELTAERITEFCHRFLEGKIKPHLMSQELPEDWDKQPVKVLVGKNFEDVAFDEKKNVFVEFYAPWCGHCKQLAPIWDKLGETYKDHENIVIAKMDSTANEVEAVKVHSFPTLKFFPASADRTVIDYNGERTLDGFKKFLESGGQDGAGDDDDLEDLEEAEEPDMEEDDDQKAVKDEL
In data set [2] the target is T1, Protein disulfide-isomerase. Description: Binding affinity to recombinant His-tagged full length human PDI-b' x domain substrate binding pocket expressed in Escherichia coli BL21 (DE3) cells assessed as decrease in fluorescence intensity at 100 uM incubated for 10 mins by tryptophan fluorescence based assay.
Target sequence in this assay (P07237 18-508 limits assumed): as above
The target is the same in data set [3]. Description: Binding affinity to recombinant His-tagged full length human PDI-b' x domain substrate binding pocket expressed in Escherichia coli BL21 (DE3) cells assessed as inhibition constant at 100 uM incubated for 10 mins by tryptophan fluorescence based assay.
Target sequence in this assay (P07237 whole entry): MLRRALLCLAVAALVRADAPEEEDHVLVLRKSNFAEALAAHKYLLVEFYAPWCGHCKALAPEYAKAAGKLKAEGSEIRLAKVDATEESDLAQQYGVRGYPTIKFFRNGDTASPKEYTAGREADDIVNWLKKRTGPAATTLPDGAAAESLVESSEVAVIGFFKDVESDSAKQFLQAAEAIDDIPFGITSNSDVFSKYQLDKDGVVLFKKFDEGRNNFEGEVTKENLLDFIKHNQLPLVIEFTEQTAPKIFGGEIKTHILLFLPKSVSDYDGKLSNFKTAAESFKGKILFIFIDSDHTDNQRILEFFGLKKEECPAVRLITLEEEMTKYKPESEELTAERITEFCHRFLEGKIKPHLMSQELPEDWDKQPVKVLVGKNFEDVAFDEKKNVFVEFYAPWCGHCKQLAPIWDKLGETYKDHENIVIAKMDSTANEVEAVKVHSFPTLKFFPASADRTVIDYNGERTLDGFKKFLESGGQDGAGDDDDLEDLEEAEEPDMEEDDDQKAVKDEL
Data set [4] deals with Mus musculus. Description: Antithrombotic activity in anesthetized ICR mouse model of electrically-induced carotid artery thrombosis assessed as inhibition of thrombosis formation by measuring increase in bleeding time at 30 mg/kg, iv. The class given is functional, organism-based.
Data set [5] has as its target T2, Protein disulfide-isomerase A4 (Homo sapiens) (UniProt P13667).
T2 sequence (whole entry): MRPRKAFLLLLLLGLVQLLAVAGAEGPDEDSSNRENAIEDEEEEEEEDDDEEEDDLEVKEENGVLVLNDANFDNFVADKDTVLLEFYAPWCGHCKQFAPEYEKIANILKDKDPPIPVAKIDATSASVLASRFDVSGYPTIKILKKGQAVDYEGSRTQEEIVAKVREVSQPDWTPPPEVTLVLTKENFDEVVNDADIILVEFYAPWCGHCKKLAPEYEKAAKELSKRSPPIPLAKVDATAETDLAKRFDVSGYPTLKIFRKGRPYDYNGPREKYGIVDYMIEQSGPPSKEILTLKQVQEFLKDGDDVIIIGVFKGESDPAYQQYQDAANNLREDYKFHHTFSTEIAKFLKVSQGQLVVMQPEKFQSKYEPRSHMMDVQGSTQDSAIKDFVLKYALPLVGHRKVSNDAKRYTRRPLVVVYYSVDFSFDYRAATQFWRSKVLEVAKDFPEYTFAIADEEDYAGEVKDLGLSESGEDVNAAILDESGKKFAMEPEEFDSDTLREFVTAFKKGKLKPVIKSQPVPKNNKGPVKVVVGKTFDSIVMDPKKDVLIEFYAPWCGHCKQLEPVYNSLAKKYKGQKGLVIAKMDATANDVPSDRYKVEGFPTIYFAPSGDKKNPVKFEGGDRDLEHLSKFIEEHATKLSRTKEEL
Description: Inhibition of ERp72 (unknown origin) reductase activity assessed as inhibition of PDI/DTT-mediated cleavage of disulfide bond in insulin in the presence of DTT incubated for 40 mins by spectrophotometric analysis. The settings on record: dose 100-200 µM, DDE = dose-dependent effect.

In data set [6] the target is T3, Protein disulfide-isomerase A3 (Homo sapiens) (UniProt P30101).
T3 sequence (whole entry): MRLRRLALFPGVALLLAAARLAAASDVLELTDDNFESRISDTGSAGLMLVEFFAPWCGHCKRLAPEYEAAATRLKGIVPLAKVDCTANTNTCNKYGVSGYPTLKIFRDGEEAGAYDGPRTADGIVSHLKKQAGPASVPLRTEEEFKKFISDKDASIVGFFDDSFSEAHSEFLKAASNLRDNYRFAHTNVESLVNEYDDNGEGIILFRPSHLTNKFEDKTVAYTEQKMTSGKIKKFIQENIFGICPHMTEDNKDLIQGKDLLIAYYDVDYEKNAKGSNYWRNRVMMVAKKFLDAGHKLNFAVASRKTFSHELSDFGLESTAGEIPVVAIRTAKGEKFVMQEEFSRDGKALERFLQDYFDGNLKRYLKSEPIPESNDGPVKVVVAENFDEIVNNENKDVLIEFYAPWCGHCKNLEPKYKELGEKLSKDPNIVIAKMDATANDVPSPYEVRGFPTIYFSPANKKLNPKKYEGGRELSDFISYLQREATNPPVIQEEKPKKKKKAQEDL
As to the kind of experiment: Inhibition of ERp57 (unknown origin) reductase activity assessed as inhibition of PDI/DTT-mediated cleavage of disulfide bond in insulin in the presence of DTT incubated for 40 mins by spectrophotometric analysis. The settings on record: dose 100-200 µM, DDE = dose-dependent effect.

Data set [7] concerns Mus musculus. Description: Antithrombotic activity in anesthetized ICR mouse model of electrically-induced carotid artery thrombosis assessed as delay in occlusion time at 30 mg/kg, iv. The class given is functional, organism-based.
The target in data set [8] is T1, Protein disulfide-isomerase. Description: Inhibition of recombinant His-tagged full length human PDI reductase activity assessed as inhibition of PDI/DTT-mediated cleavage of disulfide bond in insulin in the presence of DTT incubated for 40 mins by spectrophotometric analysis. The settings on record: dose 100-200 µM, DDE = dose-dependent effect.
Target sequence in this assay (P07237 18-508 limits assumed): as the sequence (P07237 18-508 limits assumed) above
Data set [9] is described as follows: Toxicity in anesthetized ICR mouse model of electrically-induced carotid artery thrombosis assessed as thrombus formation by measuring blood loss in tail at 30 mg/kg, iv. The data set is classed as organism-based. Conditions: in vivo.
For data set [10], the target named is T4, Protein disulfide-isomerase A6 (Homo sapiens) (UniProt Q15084).
T4 sequence (whole entry): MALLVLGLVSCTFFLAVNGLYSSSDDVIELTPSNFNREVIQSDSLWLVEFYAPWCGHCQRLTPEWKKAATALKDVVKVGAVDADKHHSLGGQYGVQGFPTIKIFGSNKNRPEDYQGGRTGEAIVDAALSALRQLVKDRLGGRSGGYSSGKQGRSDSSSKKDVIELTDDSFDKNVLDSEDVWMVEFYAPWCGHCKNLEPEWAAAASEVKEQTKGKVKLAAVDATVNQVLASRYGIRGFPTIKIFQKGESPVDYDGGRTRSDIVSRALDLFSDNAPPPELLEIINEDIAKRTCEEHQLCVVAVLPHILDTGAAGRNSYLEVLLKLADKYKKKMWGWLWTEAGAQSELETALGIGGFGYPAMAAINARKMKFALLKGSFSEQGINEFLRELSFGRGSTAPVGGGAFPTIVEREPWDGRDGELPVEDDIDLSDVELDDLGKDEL
Description: Inhibition of ERp5 (unknown origin) reductase activity assessed as inhibition of PDI/DTT-mediated cleavage of disulfide bond in insulin in the presence of DTT incubated for 40 mins by spectrophotometric analysis. Conditions: dose 100-200 µM, DDE = dose-dependent effect.

pKi: −log10 of the molar value. Active and inactive are the calls of the source. The calls are words filed in the database; no cut-off is given here.

`COc1cc(C=O)ccc1OC(C)=O`: the inhibition entry in data set [1] is “Active”. Besides, in data set [2], the result was Active. Further, the pKi in data set [3] is 3.51.

On to `NC(CO)C(=O)NNCc1ccc(O)c(O)c1O` (centres undefined), for which the result in data set [2] was Active.

In the case of `O=C(Nc1ccccc1)c1ccccc1O`, the result in [2] was Active.

In the case of `O=c1c(O)c(-c2ccccc2)oc2ccccc12`, the result in data set [2] was Active.

Consider `O=c1c(O)c(-c2ccccc2)oc2cc(O)cc(O)c12` [GALANGIN], for which the outcome (in the data set on Mus musculus [4]; with Mus musculus [7]; in data set [2]) was Active. The inhibition result in data set [1] is “Active”. Moreover, the inhibition result in [5], in data set [6], in [8] and in [10] was “Dde” each time. Moreover, in data set [3], the pKi was 5.23. Moreover, the Activity result in data set [9] is on record as “Non-Toxic”.

`O=C(/C=C/c1ccc(O)cc1)c1ccc(O)cc1O` [ISOLIQUIRITIGENIN]: the inhibition result in data set [1] is “Active”. Moreover, in [2], the outcome was Active. The pKi in data set [3] was 4.44.

For orientation: pKi means the Ki on a negative log10 scale, so that one unit is a factor of ten.

The values above are taken from ChEMBL document CHEMBL5143678, “Identification of Antithrombotic Natural Products Targeting the Major Substrate Binding Pocket of Protein Disulfide Isomerase” (J Nat Prod, 2022).
